Data reported in patent US8895592B2, “Compounds as cannabinoid receptor ligands” (priority 2008, dated 2014).

Tests used:
rat CB2 receptors = rat CB2 receptors (Rattus norvegicus (Rat), UniProt Q9QZN9); experiment: rat CB2 radioligand binding assay ([3H]CP 55,940 competition); conditions: HEK293 membranes, 0.5 nM [3H]CP 55,940
Description: HEK293 cells stably expressing rat CB2 receptors were grown until a confluent monolayer was formed. Briefly, the cells were harvested and homogenized in TE buffer (50 mM Tris-HCl, 1 mM MgCl2, and 1 mM EDTA) using a polytron for 2×10 second bursts in the presence of protease inhibitors, followed by centrifugation at 45,000×g for 20 minutes. The final membrane pellet was re-homogenized in storage buffer (50 mM Tris-HCl, 1 mM MgCl2, and 1 mM EDTA and 10% sucrose) and frozen at −78° C. until used. Saturation binding reactions were initiated by the addition of membrane preparation (protein concentration of 20 μg/well for rat CB2) into wells of a deep well plate containing [^3H]CP 55,940 (120 Ci/mmol, a nonselective CB agonist commercially available from Tocris) in assay buffer (50 mM Tris, 2.5 mM EDTA, 5 mM MgCl2, and 0.5 mg/mL fatty acid free BSA, pH 7.4). After 45 min incubation at 30° C., binding reaction was terminated by the addition of 300 μl/well of cold assay buffer followed by rapid vacuum filtration through a UniFilter-96 GF/C filter plates (pre-soaked in 1 mg/mL BSA for 2 hours). The bound activity was counted in a TopCount using Microscint-20. Saturation experiments were conducted with twelve concentrations of [^3H]CP 55,940 ranging from 0.01 to 8 nM. Competition experiments were conducted with 0.5 nM [^3H]CP 55,940 and five concentrations of displacing ligands selected from the range of 0.01 nM to 10 μM. The addition of 10 μM unlabeled CP 55,940 (Tocris, Ellisville, Mo.) was used to assess nonspecific binding.

human CB2 receptors = human CB2 receptors (Homo sapiens (Human), UniProt P34972); experiment: human CB2 radioligand binding assay ([3H]CP 55,940 competition); conditions: HEK293 membranes, 0.5 nM [3H]CP 55,940
human CB2 receptors, sequence (P34972 whole entry): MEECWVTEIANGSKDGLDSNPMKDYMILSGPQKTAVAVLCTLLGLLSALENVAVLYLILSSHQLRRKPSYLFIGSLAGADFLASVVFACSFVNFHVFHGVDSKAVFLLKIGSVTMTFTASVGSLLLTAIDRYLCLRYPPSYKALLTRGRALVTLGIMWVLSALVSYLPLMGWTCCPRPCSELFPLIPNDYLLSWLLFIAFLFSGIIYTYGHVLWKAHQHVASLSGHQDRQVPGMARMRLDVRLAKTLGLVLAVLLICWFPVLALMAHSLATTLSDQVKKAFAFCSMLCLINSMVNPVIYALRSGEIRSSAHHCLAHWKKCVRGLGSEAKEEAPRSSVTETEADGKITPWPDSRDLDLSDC
Description: HEK293 cells stably expressing human CB2 receptors were grown until a confluent monolayer was formed. Briefly, the cells were harvested and homogenized in TE buffer (50 mM Tris-HCl, 1 mM MgCl2, and 1 mM EDTA) using a polytron for 2×10 second bursts in the presence of protease inhibitors, followed by centrifugation at 45,000×g for 20 minutes. The final membrane pellet was re-homogenized in storage buffer (50 mM Tris-HCl, 1 mM MgCl2, and 1 mM EDTA and 10% sucrose) and frozen at −78° C. until used. Saturation binding reactions were initiated by the addition of membrane preparation (protein concentration of 5 μg/well for human CB2) into wells of a deep well plate containing [^3H]CP 55,940 (120 Ci/mmol, a nonselective CB agonist commercially available from Tocris) in assay buffer (50 mM Tris, 2.5 mM EDTA, 5 mM MgCl2, and 0.5 mg/mL fatty acid free BSA, pH 7.4). After 90 min incubation at 30° C., binding reaction was terminated by the addition of 300 μL/well of cold assay buffer followed by rapid vacuum filtration through a UniFilter-96 GF/C filter plates (pre-soaked in 1 mg/mL BSA for 2 hours). The bound activity was counted in a TopCount using Microscint-20. Saturation experiments were conducted with twelve concentrations of [^3H]CP 55,940 ranging from 0.01 to 8 nM. Competition experiments were conducted with 0.5 nM [^3H]CP 55,940 and five concentrations (0.01 nM to 10 μM) of displacing ligands. The addition of 10 μM unlabeled CP 55,940 (Tocris, Ellisville, Mo.) was used to assess nonspecific binding.

rat CB2 receptors, sequence (Q9QZN9 whole entry): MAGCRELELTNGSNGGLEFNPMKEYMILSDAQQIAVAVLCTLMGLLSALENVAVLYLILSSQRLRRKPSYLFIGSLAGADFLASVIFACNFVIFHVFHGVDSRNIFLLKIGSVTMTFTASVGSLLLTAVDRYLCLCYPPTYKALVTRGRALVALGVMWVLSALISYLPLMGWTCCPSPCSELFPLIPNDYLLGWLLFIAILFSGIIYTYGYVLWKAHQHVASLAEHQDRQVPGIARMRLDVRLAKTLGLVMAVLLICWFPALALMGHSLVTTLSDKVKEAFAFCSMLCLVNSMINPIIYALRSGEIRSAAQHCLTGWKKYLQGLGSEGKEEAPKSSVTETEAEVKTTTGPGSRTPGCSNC

C=C=CCn1cc(C(C)(C)C)s/c1=N\C(=O)c1cc(C(F)(F)F)ccc1ONC(C)(C)C [Example 31, N-[(2Z)-3-buta-2,3-dienyl-5-tert-butyl-1,3-thiazol-2(3H)-ylidene]-2-[(tert-butylamino)oxy]-5-(trifluoromethyl)benzamide]
Ki (rat CB2 receptors): 1.7 nM | Ki (human CB2 receptors): 17 nM

CC(C)Cn1cc(C(C)(C)C)s/c1=N\C(=O)c1ccccc1OC[C@@H]1CCCN1C [Example 10, N-[(2Z)-5-tert-butyl-3-isobutyl-1,3-thiazol-2(3H)-ylidene]-2-{[(2S)-1-methylpyrrolidin-2-yl]methoxy}benzamide]
Ki (rat CB2 receptors): 243 nM | Ki (human CB2 receptors): 296 nM

CC(C)Cn1cc(C(C)(C)C)s/c1=N\C(=O)c1cc(Cl)ccc1OC1CC1 [Example 15, N-[(2Z)-5-tert-butyl-3-isobutyl-1,3-thiazol-2(3H)-ylidene]-5-chloro-2-(cyclopropyloxy)benzamide]
Ki (rat CB2 receptors): 1.1 nM | Ki (human CB2 receptors): 9.9 nM

CCCCn1cc(C(C)(C)C)s/c1=N\C(=O)c1cc(C(F)(F)F)ccc1ONC(C)(C)C [Example 23, 2-[(tert-butylamino)oxy]-N-[(2Z)-3-butyl-5-tert-butyl-1,3-thiazol-2(3H)-ylidene]-5-(trifluoromethyl)benzamide]
Ki (rat CB2 receptors): 0.95 nM | Ki (human CB2 receptors): 6.7 nM

CCCCn1/c(=N/C(=O)c2cc(C(F)(F)F)ccc2OC[C@@H]2CCCN2C)sc2ccncc21 [Example 33, N-[(2Z)-3-butyl[1,3]thiazolo[4,5-c]pyridin-2(3H)-ylidene]-2-{[(2S)-1-methylpyrrolidin-2-yl]methoxy}-5-(trifluoromethyl)benzamide]
Ki (rat CB2 receptors): 35 nM | Ki (human CB2 receptors): 34 nM

CCCCn1c(C(=O)OC)c(C(C)C)s/c1=N\C(=O)c1cc(C(F)(F)F)ccc1ONC(C)(C)C [Example 34]
Ki (rat CB2 receptors): 48 nM | Ki (human CB2 receptors): 129 nM

CC(C)(O)COc1ccc(C(F)(F)F)cc1C(=O)/N=c1\sc2ccncc2n1CCCC(F)(F)F [Example 27, 2-(2-hydroxy-2-methylpropoxy)-N-[(2Z)-3-(4,4,4-trifluorobutyl)[1,3]thiazolo[4,5-c]pyridin-2(3H)-ylidene]-5-(trifluoromethyl)benzamide]
Ki (rat CB2 receptors): 10 nM | Ki (human CB2 receptors): 8.4 nM

CCCCn1/c(=N/C(=O)c2cc(C(F)(F)F)ccc2OC[C@@H](C)O)sc2ccncc21 [Example 28, N-[(2Z)-3-butyl[1,3]thiazolo[4,5-c]pyridin-2(3H)-ylidene]-2-{[(2R)-2-hydroxypropyl]oxy}-5-(trifluoromethyl)benzamide]
Ki (rat CB2 receptors): 63 nM | Ki (human CB2 receptors): 75 nM

CCCCn1/c(=N/C(=O)c2cc(C(F)(F)F)ccc2OCCC(C)(C)O)sc2ccncc21 [Example 20, N-[(2Z)-3-butyl[1,3]thiazolo[4,5-c]pyridin-2(3H)-ylidene]-2-(3-hydroxy-3-methylbutoxy)-5-(trifluoromethyl)benzamide]
Ki (rat CB2 receptors): 48 nM | Ki (human CB2 receptors): 35 nM

CCCCn1cc(C(C)(C)C)s/c1=N\C(=O)c1cc(C(F)(F)F)ccc1NNC(=O)c1cccnc1 [Example 37, N-[(2Z)-3-butyl-5-tert-butyl-1,3-thiazol-2(3H)-ylidene]-2-[2-(pyridin-3-ylcarbonyl)hydrazino]-5-(trifluoromethyl)benzamide]
Ki (rat CB2 receptors): 0.77 nM | Ki (human CB2 receptors): 1.6 nM

CCCCn1/c(=N/C(=O)c2cc(C(F)(F)F)ccc2ONC(C)(C)C)sc2ccncc21 [Example 22, 2-[(tert-butylamino)oxy]-N-[(2Z)-3-butyl[1,3]thiazolo[4,5-c]pyridin-2(3H)-ylidene]-5-(trifluoromethyl)benzamide]
Ki (rat CB2 receptors): 73 nM | Ki (human CB2 receptors): 62 nM

CCCCn1cc(C(C)(C)C)s/c1=N\C(=O)c1cc(C(F)(F)F)ccc1NNC(=O)c1ccncc1 [Example 38, N-[(2Z)-3-butyl-5-tert-butyl-1,3-thiazol-2(3H)-ylidene]-2-(2-isonicotinoylhydrazino)-5-(trifluoromethyl)benzamide]
Ki (rat CB2 receptors): 2.3 nM | Ki (human CB2 receptors): 1.1 nM

CC(C)Cn1cc(C(C)(C)C)s/c1=N\C(=O)c1cc(C(F)(F)F)ccc1O[C@H]1CCN(C)C1 [Example 13, N-[(2Z)-5-tert-butyl-3-isobutyl-1,3-thiazol-2(3H)-ylidene]-2-{[(3S)-1-methylpyrrolidin-3-yl]oxy}-5-(trifluoromethyl)benzamide]
Ki (rat CB2 receptors): 81 nM | Ki (human CB2 receptors): 111 nM

CC(C)Cn1cc(C(C)(C)C)s/c1=N\C(=O)c1cc(C#N)ccc1OC1CCC1 [Example 16, N-[(2Z)-5-tert-butyl-3-isobutyl-1,3-thiazol-2(3H)-ylidene]-5-cyano-2-(cyclobutyloxy)benzamide]
Ki (rat CB2 receptors): 5.2 nM | Ki (human CB2 receptors): 96 nM

CCCCn1/c(=N/C(=O)c2cc(C(F)(F)F)ccc2OC[C@H](C)O)sc2ncccc21 [Example 36, N-[(2Z)-1-butyl[1,3]thiazolo[5,4-b]pyridin-2(1H)-ylidene]-2-{[(2S)-2-hydroxypropyl]oxy}-5-(trifluoromethyl)benzamide]
Ki (rat CB2 receptors): 2.1 nM | Ki (human CB2 receptors): 1.4 nM

CC(C)Cn1cc(C(C)(C)C)s/c1=N\C(=O)c1cc(C(F)(F)F)ccc1OCCn1ccnc1 [Example 6, N-[(2Z)-5-tert-butyl-3-isobutyl-1,3-thiazol-2(3H)-ylidene]-2-[2-(1H-imidazol-1-yl)ethoxy]-5-(trifluoromethyl)benzamide]
Ki (rat CB2 receptors): 39 nM | Ki (human CB2 receptors): 96 nM

C#CCCn1cc(C(C)(C)C)s/c1=N\C(=O)c1cc(C(F)(F)F)ccc1ONC(C)(C)C [Example 30, 2-[(tert-butylamino)oxy]-N-[(2Z)-5-tert-butyl-3-but-3-ynyl-1,3-thiazol-2(3H)-ylidene]-5-(trifluoromethyl)benzamide]
Ki (rat CB2 receptors): 0.75 nM | Ki (human CB2 receptors): 15 nM

CC(C)(O)COc1ccc(C(F)(F)F)cc1C(=O)/N=c1\sc2ccncc2n1CC1CCC1 [Example 26, N-[(2Z)-3-(cyclobutylmethyl)[1,3]thiazolo[4,5-c]pyridin-2(3H)-ylidene]-2-(2-hydroxy-2-methylpropoxy)-5-(trifluoromethyl)benzamide]
Ki (rat CB2 receptors): 7.4 nM | Ki (human CB2 receptors): 2.5 nM

CCCCn1cc(C(C)(C)C)s/c1=N\C(=O)c1cc(C(F)(F)F)ccc1OCC(C)(C)O [Example 32, N-[(2Z)-3-butyl-5-tert-butyl-1,3-thiazol-2(3H)-ylidene]-2-(2-hydroxy-2-methylpropoxy)-5-(trifluoromethyl)benzamide]
Ki (rat CB2 receptors): 1.2 nM | Ki (human CB2 receptors): 0.82 nM

CCCCn1/c(=N/C(=O)c2cc(C(F)(F)F)ccc2OCC(C)(C)O)sc2ncccc21 [Example 35, N-[(2Z)-1-butyl[1,3]thiazolo[5,4-b]pyridin-2(1H)-ylidene]-2-(2-hydroxy-2-methylpropoxy)-5-(trifluoromethyl)benzamide]
Ki (rat CB2 receptors): 28 nM | Ki (human CB2 receptors): 15 nM

CC(C)(C)c1cn(CCC(F)(F)F)/c(=N/C(=O)c2cc(C#N)ccc2OC2CCC2)s1 [Example 17, N-[(2Z)-5-tert-butyl-3-(3,3,3-trifluoropropyl)-1,3-thiazol-2(3H)-ylidene]-5-cyano-2-(cyclobutyloxy)benzamide]
Ki (rat CB2 receptors): 1.1 nM | Ki (human CB2 receptors): 53 nM

Cc1s/c(=N\C(=O)c2cc(C(F)(F)F)ccc2OC[C@@H]2CCCN2C)n(CC2CC2)c1C [Example 24, N-[(2Z)-3-(cyclopropylmethyl)-4,5-dimethyl-1,3-thiazol-2(3H)-ylidene]-2-{[(2S)-1-methylpyrrolidin-2-yl]methoxy}-5-(trifluoromethyl)benzamide]
Ki (rat CB2 receptors): 35 nM | Ki (human CB2 receptors): 30 nM
